# Test results: patent publication US20240019429A1, “METHODS AND RELATED ASPECTS FOR DETERMINING BINDING KINETICS OF LIGANDS” (ARIZONA BOARD OF REGENTS ON BEHALF OF ARIZONA STATE …, priority 2022, published 2024)
# Tests used:
# [1] = molecular target: T1, calmodulin (Homo sapiens, UniProt P0DP23); test: SPR-OBL equilibrium analysis of ion binding to calmodulin OBL; details: equilibrium analysis of AC response, 100 times diluted PBS buffer
# T1 construct: purchased Sigma Aldrich
# Excerpt: Calmodulin is a calcium sensing protein that plays a central role in cell signaling, muscle contraction and cell division. We fabricated a calmodulin OBL and flowed different concentrations of Ca^2+ over the surface. The binding of Ca^2+ to calmodulin would lead to charge and conformation change of the OBL but with small mass change (FIG. 7a). […] Thus, we only measured the magnitude of the equilibrium state. […] We note that calmodulin is negatively charged, so Ca^2+ binding should decrease the amplitude of the AC signal. The increase of AC signal in FIG. 7b is due to artifacts in data processing when correcting the background charging. The raw data has decreased signal but much lower signal-to-noise ratio (not shown). Magnesium would also bind to calmodulin with a lower affinity compared with calcium.
# (§1) Binding kinetics measurement.
# [2] = molecular target: T2, Src kinase (Homo sapiens, UniProt P12931); test: SPR-OBL phosphorylation kinetics of SRCtide by Src kinase; type: biochemical; details: ATP present
# T2 construct: The active full length SRC protein was purchased from Abcam; purchased Abcam
# Excerpt: Since SPR-OBL is able to record mass and charge changes at the same time, it is particularly suitable for studying complex enzymatic processes that involve multiple kinetic steps and size and charge changes. Phosphorylation is one of such reactions that includes binding of the kinase to the substrate, adding a phosphate to the substrate, and unbinding of the kinase, where each step accompanies mass or charge change. Despite the importance of phosphorylation in many basic cellular signaling processes and its close relationship with various diseases and cancers, traditional techniques including fluorescence, western blot, and mass spectrometry are unable to resolve the kinetic process in real-time, and each kinetic step needs to be measured separately, limiting the measurement efficiency. In contrast, SPR-OBL can measure multiple steps of the enzyme catalytic reaction in real-time and extract several kinetic parameters in a single measurement. We studied the phosphorylation of SRCtide as an example. SRCtide that was a peptide containing 14 amino acid with the sequence GEEPLYWSFPAKKK (SEQ ID NO: 1) was modified on a streptavidin OBL, which serves as the substrate of the enzyme Src kinase. […]
# where E and S are the enzyme and substrate, ES is the complex, and P is the phosphorylated product, respectively; and k denotes the kinetic constant in each step. We measured the SPR-OBL response of different concentrations of Src in the presence of ATP and the results are shown in FIG. 8b. […]
# where [E0], [S0] and [P] are concentration of SRC, SRCtide and the product, respectively. The Michaelis constant (KM) and catalytic constant (k2) can be determined to be 4.4 nM and 5.5×10^−4 s^−1 by fitting the AC component (FIG. 8d) to Eq. 1. Knowing KM and k2 the association rate constant (k1) and dissociation rate constant (k−1) can be determined by fitting the DC component (FIG. 8c) to the following equations: […]
# (§2) Fabrication of OBL. […] The surface coverage of streptavidin on the PEG layer was measured to be 64%, and 46% of the streptavidin could oscillate effectively. […]
# [3] = molecular target: KcsA-Kv1.3; test: SPR-OBL binding kinetics of small molecules to KcsA-Kv1.3 nanodisc on streptavidin OBL; details: AC response, 40 times diluted nanodisc buffer
# Excerpt: Unlike macromolecules that are inclined to have both mass and charge changes upon binding, small molecules are more likely to have charge change with little mass change. As such, measuring charge could be more sensitive for small molecules. To highlight this advantage of SRR-OBL and its potential for drug screening, we measured two small molecule drug candidates, compound 1 and PAP-1, binding to their target KcsA-Kv1.3, which is a chimeric membrane protein. The KcsA-Kv1.3 was encapsulated in a self-assembled phospholipid bilayer nanodisc that provides a nativelike environment for the membrane proteins to retain the structure and function. Despite the importance of membrane protein as drug targets, measuring the interaction with small molecule drug candidates has been challenging for traditional mass-sensitive technologies, due to the huge mass difference between the small molecule and the membrane protein complex. Before adding samples, 40 times diluted nanodisc buffer was flowed over the surface for 200 seconds to establish the baseline. The binding of the small molecule to KcsA-Kv1.3 nanodisc caused a charge change on the OBL, which leads to an AC response. As mentioned before, small molecule would only introduce a minor mass change. Therefore, the DC response of OBL is not obvious. […] According to a previous study that temperature would influence the binding kinetics between KcsA-Kv1.3 and small molecule due to the effect on the flexibility of lipid bilayer, we repeated the experiment under 30° C. and found the kinetic constants became (2.7±0.5)×10^4 M^−1s^−1, (1.9±0.4)×10^−2 s^−1 and 6.8±1.2×10 2 nM, as shown in FIG. 6c. The results are close to the value in literature. […] To verify the binding was specific, we performed control experiments by directly injecting compound 1 and PAP-1 to a streptavidin OBL without nanodisc at 30° C.
# Fabrication of OBL. The sensor chip (a cover glass coated with 43 nm Au) was rinsed by DI water and ethanol for twice. Then it was annealed by hydrogen flame to further remove surface contaminants. To fabricate the streptavidin OBL, the chip was first dipped in a mixture of 1 mM thiol-PEG2k and 100 μM thiol-PEG10k-bioitin in 1×PBS overnight. The chip was dried with N2 and a silicone cell was mounted on the chip surface for holding solution. Next, the surface was incubated in 0.2 mg/mL streptavidin in PBS for 30 mins. The functionalized surface was carefully rinsed with PBS for 6 times. Note that the solution should not be completely removed from the cell during the rinsing process, and any air bubbles should be avoided as well, because the tethered protein could be irreversibly absorbed on the surface once exposed to air. The surface coverage of streptavidin on the PEG layer was measured to be 64%, and 46% of the streptavidin could oscillate effectively. The streptavidin OBL was later used to couple biotinylated proteins. To couple KcsA-Kv1.3 nanodisc, 70 μg/mL biotinylated KcsA-Kv1.3 nanodisc in nanodisc buffer was added to the cell and incubated for 30 min. Similarly, the biotinylated SRCtide was immobilized on the streptavidin OBL by incubating in 33 μg/mL SRCtide in kinase buffer containing 5 mM MgCl2 and 1 mM HEPES (pH 7.4) for 30 mins.
# as §1
# [4] = molecular target: T3, streptavidin OBL (Streptomyces avidinii, UniProt P22629); test: Control experiment: small molecules injected to streptavidin OBL without nanodisc; type: binding; details: streptavidin OBL without nanodisc at 30° C.
# T3 construct: purchased Thermo Fisher Scientific
# T3 sequence (P22629 37-163 limits assumed): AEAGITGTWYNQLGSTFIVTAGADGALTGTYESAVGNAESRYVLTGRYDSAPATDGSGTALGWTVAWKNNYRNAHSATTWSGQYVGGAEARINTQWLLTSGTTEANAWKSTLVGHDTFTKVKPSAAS
# Excerpt: Unlike macromolecules that are inclined to have both mass and charge changes upon binding, small molecules are more likely to have charge change with little mass change. As such, measuring charge could be more sensitive for small molecules. To highlight this advantage of SRR-OBL and its potential for drug screening, we measured two small molecule drug candidates, compound 1 and PAP-1, binding to their target KcsA-Kv1.3, which is a chimeric membrane protein. The KcsA-Kv1.3 was encapsulated in a self-assembled phospholipid bilayer nanodisc that provides a nativelike environment for the membrane proteins to retain the structure and function. Despite the importance of membrane protein as drug targets, measuring the interaction with small molecule drug candidates has been challenging for traditional mass-sensitive technologies, due to the huge mass difference between the small molecule and the membrane protein complex. Before adding samples, 40 times diluted nanodisc buffer was flowed over the surface for 200 seconds to establish the baseline. The binding of the small molecule to KcsA-Kv1.3 nanodisc caused a charge change on the OBL, which leads to an AC response. […]
# as §2
compound,measurement,setting,value
"[Mg+2] [Mg^2+, Magnesium]",Kd,[1],35 µM
"[Ca+2] [Ca^2+, calcium ion]",Kd,[1],1.9 µM
"SRCtide: peptide containing 14 amino acid with the sequence GEEPLYWSFPAKKK (SEQ ID NO: 1), substrate of Src kinase",catalytic constant (k2),[2]; fit of AC component to Eq. 1 (EQSS),0.00055 s⁻¹
same,association rate constant (k1),[2]; fit of DC component,1.3×10^4
same,dissociation rate constant (k−1),[2]; fit of DC component,2e-06 s⁻¹
O=c1ccc2c(OCCCCOc3ccccc3)c3ccoc3cc2o1 [PAP-1],Kd,[3]; 25° C.,65 ± 11 µM
same,ka,[3]; 25° C.,(3.8±0.6)×10^2 M^−1 s^−1
same,kd,[3]; 25° C.,(2.3±0.1)×10^−2 s^−1
same,Kd,[3]; 30° C.,210 µM
same,ka,[3]; 30° C.,(4.8±0.4)×10^2 M^−1s^−1
same,kd,[3]; 30° C.,(9.6±1.1)×10^−2 s^−1
same,response on streptavidin OBL (nonspecific binding control),[4],only small response
